Assay results taken from ChEMBL document CHEMBL1131272, “Aromatic analogs of arcaine inhibit MK-801 binding to the NMDA receptor” (Bioorg Med Chem Lett, 1998).

What was measured:
[1] = biological target: Glutamate [NMDA] receptor; assay: Ability to inhibit MK-801 binding to NMDA receptor in the presence of 100 uM of spermidine was determined; assay type: protein-complex assay
[2] = biological target: Glutamate [NMDA] receptor; assay: Ability to inhibit MK-801 binding to the NMDA receptor was determined; assay type: protein-complex assay

Row | IC50 [1] [µM] | IC50 [2] [µM] | SMILES
1 | 111 | 10.6 | CCCN(Cc1cc(O)cc(CN(CCC)C(=N)N)c1)C(=N)N
2 | 7.09 | 1.19 | N=C(N)NCc1cccc(CNC(=N)N)c1
3 | 15.7 | 5.14 | N=C(N)NCc1cc(CNC(=N)N)cc(-c2ccccc2)c1
4 | 9.88 | 9.07 | N=C(N)NCc1cc(CNC(=N)N)cc(OC2CCCCC2)c1
5 | 12.2 | 0.58 | CCCN(Cc1cccc(CN(CCC)C(=N)N)c1)C(=N)N
6 | 49.3 | 4.02 | N=C(N)NCc1cccc(CNC(=N)N)n1
7 | 75.8 | 5.1 | CCN(Cc1cccc(CN(CC)C(=N)N)c1)C(=N)N
8 | 95.2 | 8.62 | CCCN(Cc1cccc(CN(CCC)C(=N)N)n1)C(=N)N
9 | 80 | 9.13 | NC(N)=NCCCCN=C(N)N [ARCAINE]
10 | 112 | 10.8 | CC(C)CN(Cc1cccc(CN(CC(C)C)C(=N)N)c1)C(=N)N
11 | 55.3 | 20.6 | CCCN(Cc1cc(CN(CCC)C(=N)N)cc(OC)c1)C(=N)N
12 | 5.89 | 1.3 | COc1cc(CNC(=N)N)cc(CNC(=N)N)c1
13 | 10.5 | 2.43 | CC(C)Oc1cc(CNC(=N)N)cc(CNC(=N)N)c1
14 | 2.23 | 3.82 | N=C(N)N(Cc1ccccc1)Cc1cccc(CN(Cc2ccccc2)C(=N)N)c1
15 | 9.27 | 2.8 | CCCCN(Cc1cccc(CN(CCCC)C(=N)N)c1)C(=N)N
16 | 29.8 | 3.85 | C=CCN(Cc1cccc(CN(CC=C)C(=N)N)c1)C(=N)N
17 | 20.6 | 4.34 | N=C(N)NCc1cc(CNC(=N)N)cc(NC(=O)c2ccccc2)c1
